# Patent publication US20210254272A1, “TEXTILES HAVING ANTIMICROBIAL PROPERTIES” (Livinguard AG, priority 2015, published 2021)
# Assay: Leaching test: 100 g fabric soaked in 10 liters stagnant distilled water, 3 days (72 hours)
# Assay type: physicochemical
# Settings: for Leaching of active ingredients: exhaust 80° C. 60 min, cured 180° C. 2 min, post wash
# In short: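 Test and control fabrics were soaked together in a closed jar. Leached substances in the water were then determined by standard analytical methods.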
compound,measurement,setting,value
"CCCC1COC(Cn2cncn2)(c2ccc(Cl)cc2Cl)O1 (centres unmarked) [Propiconazole, propiconazole]",Leaching of active ingredients (in ppm),"0.2% each in mixture (o.w.f), exhaust 80° C., 60 min, curing 180° C., 2 min, unwashed",4 ppm
same,Leaching of active ingredients (in ppm),"0.5% each in mixture (o.w.f), exhaust 80° C., 60 min, curing 180° C., 2 min, unwashed",6 ppm
same,Leaching of active ingredients (in ppm),"1.0% each in mixture (o.w.f), exhaust 80° C., 60 min, curing 180° C., 2 min, unwashed",8 ppm
same,Leeching in ppm,"Exhaust + Wash + pad + Wash, exhaust 0.1% o.w.f. each in mixture, 1 gm/liter pad",0.5 ppm
same,Leeching in ppm,"Exhaust + Wash + pad + Wash, exhaust 0.1% o.w.f. each in mixture, 5 gm/liter pad",0.7 ppm
same,Leeching in ppm,"Exhaust + Wash + pad + Wash, exhaust 0.1% o.w.f. each in mixture, 10 gm/liter pad",0.6 ppm
same,Leeching in ppm,"Exhaust + Wash + pad + Wash, exhaust 0.25% o.w.f. each in mixture, 1 gm/liter pad",7 ppm
same,Leeching in ppm,"Exhaust + Wash + pad + Wash, exhaust 0.25% o.w.f. each in mixture, 5 gm/liter pad",7 ppm
same,Leeching in ppm,"Exhaust + Wash + pad + Wash, exhaust 0.25% o.w.f. each in mixture, 10 gm/liter pad",20 ppm
same,Leeching in ppm,"Exhaust + Wash + pad + Wash, exhaust 0.5 (% o.w.f) each in mixture, 1 gm/liter pad",5 ppm
same,Leeching in ppm,"Exhaust + Wash + pad + Wash, exhaust 0.5 (% o.w.f) each in mixture, 5 gm/liter pad",15 ppm
same,Leeching in ppm,"Exhaust + Wash + pad + Wash, exhaust 0.5 (% o.w.f) each in mixture, 10 gm/liter pad",26 ppm
same,Leeching in ppm,"Exhaust + Wash + pad + Wash, exhaust 1.0% o.w.f. each in mixture, 1 gm/liter pad",10 ppm
same,Leeching in ppm,"Exhaust + Wash + pad + Wash, exhaust 1.0% o.w.f. each in mixture, 5 gm/liter pad",19 ppm
same,Leeching in ppm,"Exhaust + Wash + pad + Wash, exhaust 1.0% o.w.f. each in mixture, 10 gm/liter pad",34 ppm
same,Leeching in ppm,"Exhaust + pad + Wash, exhaust 0.1% o.w.f. each in mixture, 1 gm/liter pad",149 ppm
same,Leeching in ppm,"Exhaust + pad + Wash, exhaust 0.1% o.w.f. each in mixture, 5 gm/liter pad",241 ppm
same,Leeching in ppm,"Exhaust + pad + Wash, exhaust 0.1% o.w.f. each in mixture, 10 gm/liter pad",256 ppm
same,Leeching in ppm,"Exhaust + pad + Wash, exhaust 0.25% o.w.f. each in mixture, 1 gm/liter pad",231 ppm
same,Leeching in ppm,"Exhaust + pad + Wash, exhaust 0.25% o.w.f. each in mixture, 5 gm/liter pad",259 ppm
same,Leeching in ppm,"Exhaust + pad + Wash, exhaust 0.25% o.w.f. each in mixture, 10 gm/liter pad",546 ppm
same,Leeching in ppm,"Exhaust + pad + Wash, exhaust 0.5 (% o.w.f) each in mixture, 1 gm/liter pad",475 ppm
same,Leeching in ppm,"Exhaust + pad + Wash, exhaust 0.5 (% o.w.f) each in mixture, 5 gm/liter pad",538 ppm
same,Leeching in ppm,"Exhaust + pad + Wash, exhaust 0.5 (% o.w.f) each in mixture, 10 gm/liter pad",649 ppm
same,Leeching in ppm,"Exhaust + pad + Wash, exhaust 1.0% o.w.f. each in mixture, 1 gm/liter pad",578 ppm
same,Leeching in ppm,"Exhaust + pad + Wash, exhaust 1.0% o.w.f. each in mixture, 5 gm/liter pad",689 ppm
same,Leeching in ppm,"Exhaust + pad + Wash, exhaust 1.0% o.w.f. each in mixture, 10 gm/liter pad",853 ppm
same,Leeching in ppm,"Exhaust + pad, exhaust 0.1% o.w.f. each in mixture, 1 gm/liter pad",194 ppm
same,Leeching in ppm,"Exhaust + pad, exhaust 0.1% o.w.f. each in mixture, 5 gm/liter pad",284 ppm
same,Leeching in ppm,"Exhaust + pad, exhaust 0.1% o.w.f. each in mixture, 10 gm/liter pad",345 ppm
same,Leeching in ppm,"Exhaust + pad, exhaust 0.25% o.w.f. each in mixture, 1 gm/liter pad",317 ppm
same,Leeching in ppm,"Exhaust + pad, exhaust 0.25% o.w.f. each in mixture, 5 gm/liter pad",346 ppm
same,Leeching in ppm,"Exhaust + pad, exhaust 0.25% o.w.f. each in mixture, 10 gm/liter pad",354 ppm
same,Leeching in ppm,"Exhaust + pad, exhaust 0.5 (% o.w.f) each in mixture, 1 gm/liter pad",365 ppm
same,Leeching in ppm,"Exhaust + pad, exhaust 0.5 (% o.w.f) each in mixture, 5 gm/liter pad",456 ppm
same,Leeching in ppm,"Exhaust + pad, exhaust 0.5 (% o.w.f) each in mixture, 10 gm/liter pad",867 ppm
same,Leeching in ppm,"Exhaust + pad, exhaust 1.0% o.w.f. each in mixture, 1 gm/liter pad",596 ppm
same,Leeching in ppm,"Exhaust + pad, exhaust 1.0% o.w.f. each in mixture, 5 gm/liter pad",810 ppm
same,Leeching in ppm,"Exhaust + pad, exhaust 1.0% o.w.f. each in mixture, 10 gm/liter pad",1456 ppm
same,Leeching in ppm,"Exhaust +Wash + pad, exhaust 0.1% o.w.f. each in mixture, 1 gm/liter pad",89 ppm
same,Leeching in ppm,"Exhaust +Wash + pad, exhaust 0.1% o.w.f. each in mixture, 5 gm/liter pad",154 ppm
same,Leeching in ppm,"Exhaust +Wash + pad, exhaust 0.1% o.w.f. each in mixture, 10 gm/liter pad",232 ppm
same,Leeching in ppm,"Exhaust +Wash + pad, exhaust 0.25% o.w.f. each in mixture, 1 gm/liter pad",184 ppm
same,Leeching in ppm,"Exhaust +Wash + pad, exhaust 0.25% o.w.f. each in mixture, 5 gm/liter pad",215 ppm
same,Leeching in ppm,"Exhaust +Wash + pad, exhaust 0.25% o.w.f. each in mixture, 10 gm/liter pad",321 ppm
same,Leeching in ppm,"Exhaust +Wash + pad, exhaust 0.5 (% o.w.f) each in mixture, 1 gm/liter pad",369 ppm
same,Leeching in ppm,"Exhaust +Wash + pad, exhaust 0.5 (% o.w.f) each in mixture, 5 gm/liter pad",413 ppm
same,Leeching in ppm,"Exhaust +Wash + pad, exhaust 0.5 (% o.w.f) each in mixture, 10 gm/liter pad",578 ppm
same,Leeching in ppm,"Exhaust +Wash + pad, exhaust 1.0% o.w.f. each in mixture, 1 gm/liter pad",469 ppm
same,Leeching in ppm,"Exhaust +Wash + pad, exhaust 1.0% o.w.f. each in mixture, 5 gm/liter pad",574 ppm
same,Leeching in ppm,"Exhaust +Wash + pad, exhaust 1.0% o.w.f. each in mixture, 10 gm/liter pad",657 ppm
same,Leaching of active ingredients (in ppm),"exhaust 60° C., solution dosage 1% o.w.f, process time 60 min",24 ppm
same,Leaching of active ingredients (in ppm),"exhaust 60° C., solution dosage 1% o.w.f, process time 90 min",12 ppm
same,Leaching of active ingredients (in ppm),"exhaust 60° C., solution dosage 1% o.w.f, process time 120 min",13 ppm
same,Leaching of active ingredients (in ppm),"exhaust 60° C., solution dosage 1% o.w.f, process time 180 min",13 ppm
same,Leaching of active ingredients (in ppm),"exhaust 60° C., solution dosage 1% o.w.f, process time 240 min",15 ppm
same,Leaching of active ingredients,mixture 0.2% o.w.f. each,0.3 ppm
same,Leaching of active ingredients,mixture 0.5% o.w.f. each,0.3 ppm
same,Leaching of active ingredients,mixture 1% o.w.f. each,0.9 ppm
same,Leaching of active ingredients (in ppm),"exhaust 80° C., 1% o.w.f, 60 min, curing 170° C., curing dwell time 0.5 min",28 ppm
same,Leaching of active ingredients (in ppm),"exhaust 80° C., 1% o.w.f, 60 min, curing 170° C., curing dwell time 1.0 min",24 ppm
same,Leaching of active ingredients (in ppm),"exhaust 80° C., 1% o.w.f, 60 min, curing 170° C., curing dwell time 1.5 min",21 ppm
same,Leaching of active ingredients (in ppm),"exhaust 80° C., 1% o.w.f, 60 min, curing 170° C., curing dwell time 2.0 min",15 ppm
same,Leaching of active ingredients (in ppm),"exhaust 80° C., 1% o.w.f, 60 min, curing 170° C., curing dwell time 2.5 min",17 ppm
same,Leaching of active ingredients (in ppm),"exhaust 80° C., 1% o.w.f, 60 min, curing 170° C., curing dwell time 3.0 min",17 ppm
same,Leaching of active ingredients (in ppm),"exhaust 80° C., 1% o.w.f, 60 min, curing 180° C., curing dwell time 0.5 min",24 ppm
same,Leaching of active ingredients (in ppm),"exhaust 80° C., 1% o.w.f, 60 min, curing 180° C., curing dwell time 1.0 min",12 ppm
same,Leaching of active ingredients (in ppm),"exhaust 80° C., 1% o.w.f, 60 min, curing 180° C., curing dwell time 1.5 min",13 ppm
same,Leaching of active ingredients (in ppm),"exhaust 80° C., 1% o.w.f, 60 min, curing 180° C., curing dwell time 2.0 min",3 ppm
same,Leaching of active ingredients (in ppm),"exhaust 80° C., 1% o.w.f, 60 min, curing 180° C., curing dwell time 2.5 min",13 ppm
same,Leaching of active ingredients (in ppm),"exhaust 80° C., 1% o.w.f, 60 min, curing 180° C., curing dwell time 3.0 min",13 ppm
same,Leaching of active ingredients (in ppm),"exhaust 80° C., 1% o.w.f, 60 min, curing dwell time at 190° C. (title): 0.5 min",23 ppm
same,Leaching of active ingredients (in ppm),"exhaust 80° C., 1% o.w.f, 60 min, curing dwell time at 190° C. (title): 1.0 min",12 ppm
same,Leaching of active ingredients (in ppm),"exhaust 80° C., 1% o.w.f, 60 min, curing dwell time at 190° C. (title): 1.5 min",12 ppm
same,Leaching of active ingredients (in ppm),"exhaust 80° C., 1% o.w.f, 60 min, curing dwell time at 190° C. (title): 2.0 min",10 ppm
same,Leaching of active ingredients (in ppm),"exhaust 80° C., 1% o.w.f, 60 min, curing dwell time at 190° C. (title): 2.5 min",27 ppm
same,Leaching of active ingredients (in ppm),"exhaust 80° C., 1% o.w.f, 60 min, curing dwell time at 190° C. (title): 3.0 min",34 ppm
